The source of these data is article PMC11840788, “3,3′-Diindolylmethane (DIM): A Molecular Scaffold for Inhibition of WWP1 and WWP2, Members of the NEDD4 Family HECT E3 Ligases” (ACS Omega, 2025).

One assay addresses T1, WWP1-2L34H (Homo sapiens, UniProt Q9H0M0).
T1 construct: WWP1-WW2-2,3-linker-WW3-WW4-HECT (WWP1-2L34H); His-Trx (3C site) (N, cleaved yes); made in house; host or cells: E. coli BL21-CodonPlus RP (plasmid pET32a-WWP1-2L34H, gift of Dr Wenyu Wen)
Nature of the assay: differential scanning fluorimetry (DSF), WWP1. It counts as binding. Particulars: 100 μM compound, 0.1% DMSO, Boltzmann fit. The text has this:
Differential scanning fluorimetry (DSF) was utilized to initially assess interactions of I3C with both WWP1 and WWP2. Although binding of I3C to WWP1 has been reported previously,[25] we wanted to determine whether such interactions are observed with a protein construct containing the WW2 domain, given its proximity to the proposed exo binding site. In this regard, the WWP1-WW2-2,3-linker-WW3-WW4-HECT (WWP1-2L34H) and WWP2-WW2-2,3-linker-HECT (WWP2-LH) constructs were chosen (SI Figure S2) and DSF assays performed using 100 μM I3C (0.1% DMSO) with midpoint melting temperature (Tm) determined by fitting a Boltzmann regression to the melting curve (Figure 2A). Three independent repeat experiments were performed. […] This is in marked contrast to that seen when using the simple WWP1 HECT domain as a target.[30]
A 96 well-plate (MicroAmp Optical) was loaded with 18 μL of 3.8 μM WWP1-2L34H and 2.5 μM WWP2-LH, in their respective buffers (SI Table S5) containing 5 × SYPRO orange dye. […] The plates were briefly centrifuged before the assay was run using an ABI 7500 RT-PCR following the melt curve using ROX (575 nm) as the “preset” fluorescence dye. […] The midpoint melting temperature (Tm) was calculated using a Boltzmann fit to the fluorescence curve using Protein Thermal Shift Software v1.4 (ThermoFisher). […]
(In general: In DSF a fluorescence change marks the thermal transition of the protein.)

For assay [1], the target named is WWP1 HECT domain. Also noted: method as in PMID 31097636. Particulars: microscale thermophoresis, read-out: KD (dissociation constant) WWP1; cited from earlier work. (Microscale thermophoresis detects binding through changes in fluorescence in a small temperature gradient.)
Assay [2] relates to WWP1 HECT domain. Also noted: method as in doi:10.1016/j.phytol.2023.01.002. The note with it: thermal shift analysis; cited from earlier work.

Each structure is given as a SMILES string.

T1 sequence (Q9H0M0 379-922 limits assumed): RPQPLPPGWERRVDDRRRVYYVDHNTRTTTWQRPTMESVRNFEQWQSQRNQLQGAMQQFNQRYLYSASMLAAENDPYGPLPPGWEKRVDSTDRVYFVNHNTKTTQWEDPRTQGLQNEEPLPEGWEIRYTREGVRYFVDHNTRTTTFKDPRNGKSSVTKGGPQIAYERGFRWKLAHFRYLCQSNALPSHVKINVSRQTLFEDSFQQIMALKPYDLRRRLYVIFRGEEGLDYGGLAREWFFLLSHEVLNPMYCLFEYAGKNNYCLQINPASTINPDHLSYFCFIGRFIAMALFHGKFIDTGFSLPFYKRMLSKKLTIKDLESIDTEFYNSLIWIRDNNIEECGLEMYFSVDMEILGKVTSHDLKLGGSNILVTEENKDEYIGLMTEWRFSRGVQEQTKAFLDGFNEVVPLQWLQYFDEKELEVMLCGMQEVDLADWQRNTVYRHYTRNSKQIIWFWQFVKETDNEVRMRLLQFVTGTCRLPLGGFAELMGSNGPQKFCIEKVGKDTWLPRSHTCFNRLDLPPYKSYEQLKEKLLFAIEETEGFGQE

Usually ΔTm stands for the shift of the melting midpoint relative to a reference. The term Kd denotes the free concentration of one partner at which half of the binding sites on the other are occupied at equilibrium, for simple one-to-one binding. Consider `OCc1c[nH]c2ccccc12` [Compound I3C, Indole-3-carbinol, reference compound], for which the thermal shift (ΔTm) at 100 µM on WWP1-2L34H amounted to 0.47 ± 0.15 °C. Moreover, the Kd on WWP1 HECT domain [1] is 450 nM. Further, the “shift in Tm” value with WWP1 HECT domain [2] is 3.8 °C.
